Measurements taken from BindingDB's records for doi:10.1016/j.bmcl.2013.06.055 (Takeda California, 2013).

Legend:
[1] = Inhibition of PARP1 in human Jurkat cells assessed as reduction of cell viability after 96 hrs by MTS assay
[2] = Inhibition of PARP1 in human Jurkat cells assessed as reduction of cell viability after 96 hrs by MTS assay in presence of 100 uM of temozolomide

CCOc1cc(CN2CCN(c3ccc(C(=O)NC)cc3C)CC2)cc2c1OC(C)C(=O)N2 (configuration not stated)
EC50 [1]: 26 µM | EC50 [2]: 0.02 µM

CCNC(=O)c1ccc(N2CCN(Cc3cc4c(c(OC)c3)OC(C)C(=O)N4)CC2)c(C)c1 (configuration not stated)
EC50 [1]: 44 µM | EC50 [2]: 0.01 µM

CCOc1cc(CN2CCN(c3ccc(C(=O)NC4CC4)cc3C)CC2)cc2c1OC(C)C(=O)N2 (configuration not stated)
EC50 [1]: 100 µM | EC50 [2]: 0.02 µM

COc1cc(CN2CCN(c3ccc(C(=O)NC4CC4)cc3)CC2)cc2c1OC(C)C(=O)N2 (configuration not stated)
EC50 [1]: 162 µM | EC50 [2]: 16 µM

CNC(=O)c1ccc(N2CCN(Cc3ccc4c(c3)NC(=O)C(C)O4)CC2)cc1 (configuration not stated)
EC50 [1]: 14 µM | EC50 [2]: 15 µM

CNC(=O)c1ccc(N2CCN(Cc3cc(C)c4c(c3)NC(=O)C(C)O4)CC2)cc1 (configuration not stated)
EC50 [1]: 75 µM | EC50 [2]: 11 µM

CCNC(=O)c1ccc(N2CCN(Cc3cc(C)c4c(c3)NC(=O)C(C)O4)CC2)c(Cl)c1 (configuration not stated)
EC50 [1]: 47 µM | EC50 [2]: 14 µM

CCNC(=O)c1ccc(N2CCN(Cc3ccc4c(c3)NC(=O)C(C)O4)CC2)cc1 (configuration not stated)
EC50 [1]: 42 µM | EC50 [2]: 15 µM

Cc1cc(C(=O)NC2CC2)ccc1N1CCN(Cc2cc(C)c3c(c2)NC(=O)C(C)O3)CC1 (configuration not stated)
EC50 [1]: 100 µM | EC50 [2]: 18 µM

CNC(=O)c1ccc(N2CCN(Cc3cc(C)c4c(c3)NC(=O)C(C)O4)CC2)c(C)c1 (configuration not stated)
EC50 [1]: 78 µM | EC50 [2]: 9 µM

CCNC(=O)c1ccc(N2CCN(Cc3cc4c(c(OCC)c3)OC(C)C(=O)N4)CC2)c(C)c1 (configuration not stated)
EC50 [1]: 100 µM | EC50 [2]: 0.02 µM

CNC(=O)c1ccc(N2CCN(Cc3cc(C)c4c(c3)NC(=O)C(C)O4)CC2)c(Cl)c1 (configuration not stated)
EC50 [1]: 45 µM | EC50 [2]: 14 µM

Cc1cc(CN2CCN(c3ccc(C(=O)NC4CC4)cc3)CC2)cc2c1OC(C)C(=O)N2 (configuration not stated)
EC50 [1]: 100 µM | EC50 [2]: 5 µM

CCNC(=O)c1ccc(N2CCN(Cc3cc(C)c4c(c3)NC(=O)C(C)O4)CC2)cc1 (configuration not stated)
EC50 [1]: 94 µM | EC50 [2]: 9 µM

CCNC(=O)c1ccc(N2CCN(Cc3ccc4c(c3)NC(=O)C(C)O4)CC2)c(Cl)c1 (configuration not stated)
EC50 [1]: 100 µM | EC50 [2]: 4 µM

CCNC(=O)c1ccc(N2CCN(Cc3cc4c(c(OC)c3)OC(C)C(=O)N4)CC2)cc1 (configuration not stated)
EC50 [1]: 151 µM | EC50 [2]: 16 µM

COc1cc(CN2CCN(c3ccc(C(=O)NC4CC4)cc3C)CC2)cc2c1OC(C)C(=O)N2 (configuration not stated)
EC50 [1]: 77 µM | EC50 [2]: 0.02 µM

Cc1cc(CN2CCN(c3ccc(C(=O)NC4CC4)cc3Cl)CC2)cc2c1OC(C)C(=O)N2 (configuration not stated)
EC50 [1]: 43 µM | EC50 [2]: 0.01 µM

CNC(=O)c1ccc(N2CCN(Cc3cc4c(c(OC)c3)OC(C)C(=O)N4)CC2)cc1 (configuration not stated)
EC50 [1]: 251 µM | EC50 [2]: 27 µM

CNC(=O)c1ccc(N2CCN(Cc3cc4c(c(OC)c3)OC(C)C(=O)N4)CC2)c(C)c1 (configuration not stated)
EC50 [1]: 100 µM | EC50 [2]: 0.06 µM

CCNC(=O)c1ccc(N2CCN(Cc3cc(C)c4c(c3)NC(=O)C(C)O4)CC2)c(C)c1 (configuration not stated)
EC50 [1]: 55 µM | EC50 [2]: 9 µM
